Results published in the supplement of paper PMC10307832.

What was measured:
Test in all cases: relative viability (nuclei count vs DMSO), 5 days (fraction); higher = more cells survive
[1] = compound: C1CNCCC1C2=CC(=NN2)C3=CC=NC=C3
Outline: (§1)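 Nuclei counted with MetaXpress define viability as the ratio of treated to vehicle wells, given as a median across plates. The lung cancer cell lines were in 1536-well plates, pinned with five √10-spaced library-drug doses and imaged at 4× after 5 days and Hoechst staining. Plates passed with control CV below 25% and at least one doubling.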

[2] = compound: C[C@@H](N)c1ccc(C(=O)Nc2ccnc3[nH]ccc23)cc1
Outline: as §1

Tanzisertib = compound: O[C@H]1CC[C@H](Nc2ncc3nc(Nc4c(F)cc(F)cc4F)n([C@H]4CCOC4)c3n2)CC1 [Tanzisertib]
Outline: as §1

[3] = compound: C[C@@H](N)c1ccc(C(=O)Nc2ccnc3[nH]ccc23)cc1 + Cc1nc(Nc2ncc(C(=O)Nc3c(C)cccc3Cl)s2)cc(N2CCN(CCO)CC2)n1 [Dasatinib] (partner 0.075 µM)
Outline: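 Dosing by pin tool came one day after lung cancer cell lines were seeded in 1536-well plates, using either one drug or a fixed anchor-drug dose plus five library-drug doses (not always all listed) in √10 steps. After 5 days, nuclei were counted on 4× images. Relative viability is treated-well nuclei count divided by vehicle-well nuclei count, and values are medians of duplicate plates.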

Cell Line	relative viability ([1]; 0.08 µM)	relative viability ([1]; 0.8 µM)	relative viability ([1]; 2.53 µM)	relative viability ([1]; 8 µM)	relative viability ([2]; 0.04 µM)	relative viability ([2]; 0.1265 µM)	relative viability ([2]; 0.4 µM)	relative viability ([2]; 1.265 µM)	relative viability ([2]; 4 µM)	relative viability (Tanzisertib; 0.08 µM)	relative viability (Tanzisertib; 0.253 µM)	relative viability (Tanzisertib; 0.8 µM)	relative viability (Tanzisertib; 2.53 µM)	relative viability (Tanzisertib; 8 µM)	relative viability ([3]; first compound 0.04 µM)	relative viability ([3]; first compound 0.1265 µM)	relative viability ([3]; first compound 0.4 µM)	relative viability ([3]; first compound 1.265 µM)	relative viability ([3]; first compound 4 µM)
ChaGo-K-1	0.93	1.05	0.952	0.91	1.08	0.999	1.02	0.804	0.888	1.05	0.999	0.984	0.992	0.986	0.475	0.554	0.541	0.54	0.42
EBC-1	1.09	0.981	1.06	1.02	1.06	1.01	1.08	1.01	0.991	1.16	0.991	0.971	0.871	0.825	–	–	–	–	–
EKVX	1.03	0.877	1.12	0.989	1.09	1.12	1.12	0.811	0.885	1.08	1.05	0.96	0.901	0.723	0.624	0.533	0.561	0.248	0.455
EMC-BAC-2	0.78	0.97	1.07	0.98	0.769	1.02	0.945	0.789	0.795	0.989	1.31	0.99	1.04	0.82	0.263	0.337	0.314	0.266	0.315
EPLC-272H	0.902	0.94	0.929	0.98	0.9	0.973	1.11	0.356	0.791	1.14	0.95	1.09	0.908	0.761	0.43	0.278	0.32	0.211	0.182
H3255	0.934	0.952	1.2	1	1	1.21	1.16	1.01	0.925	0.998	1.03	1.08	0.957	0.599	0.344	0.432	0.519	0.331	0.4
HARA	1.05	0.898	1.16	0.928	1	0.929	1.11	0.689	0.779	1.12	1.12	0.932	1.05	0.725	–	0.287	0.225	–	0.237
HCC-15	0.987	1.1	0.98	0.939	1.03	0.971	1.02	0.623	0.908	1.16	1	1.04	0.944	0.768	0.633	0.574	0.603	–	0.442
HCC-44	0.999	1.05	1	0.999	0.95	0.988	1.03	0.927	0.941	0.985	1.11	1.07	1.04	1.11	–	–	–	–	–
